Measured values: patent publication US11884683B2, “Tricyclic heterocycle compounds useful as HIV integrase inhibitors” (Merck Sharp & Dohme LLC, priority 2018, dated 2024)

System: HIV-1 (H9/IIIB strain)
Assay: Multiple round HIV-1 infection assay in MT4-GFP cells (wild type cell assay, Viking)
Type: cell-based
Conditions: 0% NHS condition; MT4-GFP cells infected with HIV-1 H9/IIIB; inhibition of reproductive ratio R0, ~48 h and ~72 h post-infection; read-out: WILD TYPE CELL ASSAY Viking IP (0% NHS)
Method: Assessing Antiviral Potency in a Multiple Round HIV-1 Infection Assay
The antiviral activity of the Examples herein was assessed in an assay that measures the rate of replication of HIV in cell culture, and performed according to the following procedure. HIV-1 replication was monitored using MT4-gag-GFP clone D3 (hereafter designated MT4-GFP), which are MT-4 cells modified to harbor a GFP reporter gene, the expression of which is dependent on the HIV-1 expressed proteins tat and rev. Productive infection of an MT4-GFP cell with HIV-1 results in GFP expression approximately 24 h post-infection. MT4-GFP cells were maintained at 37° C./5% CO2/90% relative humidity in RPMI 1640 supplemented with 10% fetal bovine serum, 100 U/ml penicillin/streptomycin, and 400 μg/ml G418 to maintain the reporter gene. For infections, MT4-GFP cells were placed in the same medium lacking G418 and infected overnight with HIV-1 (H9/IIIB strain) virus at an approximate multiplicity of infection of 0.01 in the same incubation conditions. Cells were then washed and re-suspended in either RPMI 1640 at 2×10^5 cells/mL (0% NHS condition) or 100% normal human serum (NHS) at 2×10^5 cells/mL (100% NHS condition). Compound plates were prepared by dispensing compounds dissolved in DMSO into wells of 384 well poly-D-lysine-coated plates (0.2 μl/well) using an ECHO acoustic dispenser. Each compound was tested in a 10-point serial 3-fold dilution (typical final concentrations: 1050 nM-0.05 nM for 0% NHS condition or […]-2.13 nM for 100% NHS condition). Controls included no inhibitor (DMSO only) and a combination of three antiviral agents (efavirenz, indinavir, an in-house integrase strand transfer inhibitor at final concentrations of […] each). Cells were added ([…]) to compound plates and the infected cells were maintained at 37° C./5% CO2/90% relative humidity.
Infected cells were quantified at two time points, ˜48 h and ˜72 h post-infection, by counting the number of green cells in each well using an Acumen eX3 scanner. The increase in the number of green cells over ˜24 h period gives the reproductive ratio, RO, which is typically 5-15 and has been shown experimentally to be in logarithmic phase (data not shown). Inhibition of R0 is calculated for each well, and IC50s determined by non-linear 4-parameter curve fitting.

IC50 [nM]	Structure (SMILES)
2.9	CCN1CN2CC(O)c3c(C(=O)NCc4c(F)cc(F)cc4F)c(=O)c(O)c(n32)C1=O (stereo not drawn) [Compound 56]
1.7	CN1C(=O)c2c(O)c(=O)c(C(=O)NCc3ccc(F)cc3F)c3n2N(CC3O)C12CCOC2 (single isomer, unassigned) [Compound 112]
3.5	CN1CN2CC(O)c3c(C(=O)NCc4ccc(F)cc4F)c(=O)c(O)c(n32)C1=O (stereo not drawn) [Compound 4]
5.2	CCN1CN2CC(O)c3c(C(=O)NCc4ccc(F)cc4)c(=O)c(O)c(n32)C1=O (stereo not drawn) [Compound 62]
5.9	CCN1CN2CC(O)c3c(C(=O)NCc4ccccc4F)c(=O)c(O)c(n32)C1=O (stereo not drawn) [Compound 64]
2.1	CCN1CN2CC(O)c3c(C(=O)NCc4cccc(Cl)c4F)c(=O)c(O)c(n32)C1=O (stereo not drawn) [Compound 51]
2	CCN1CN2CC(O)c3c(C(=O)NCc4ccc(F)c(Cl)c4F)c(=O)c(O)c(n32)C1=O (stereo not drawn) [Compound 49]
1.7	CC1N(C)C(=O)c2c(O)c(=O)c(C(=O)NCc3c(F)cc(F)cc3F)c3n2N1CC3O (stereo not drawn) [Compound 20]
1.5	CC1N(C)C(=O)c2c(O)c(=O)c(C(=O)NCc3c(F)ccc(F)c3F)c3n2N1CC3O (stereo not drawn) [Compound 24]
3.7	COCCN1CN2CC(O)c3c(C(=O)NCc4c(F)cc(F)cc4F)c(=O)c(O)c(n32)C1=O (stereo not drawn) [Compound 46]
3.3	CCC1N(C)C(=O)c2c(O)c(=O)c(C(=O)NCc3c(F)ccc(Cl)c3F)c3n2N1CC3O (stereo not drawn) [Compound 28]
1.3	CCN1C(=O)c2c(O)c(=O)c(C(=O)NCc3ccc(F)cc3)c3n2N(CC3O)C1C (single isomer, unassigned) [Compound 86]
1.7	CCN1C(=O)c2c(O)c(=O)c(C(=O)NCc3ccc(F)cc3F)c3n2N(CC3O)C1C (stereo not drawn) [Compound 92]
1.6	CC1N(C)C(=O)c2c(O)c(=O)c(C(=O)NCc3c(F)cc(F)cc3F)c3n2N1CC3O (single isomer, unassigned) [Compound 18]
8.1	CCN1CN2CC(O)c3c(C(=O)NCc4cccc(Cl)c4F)c(=O)c(O)c(n32)C1=O (stereo not drawn) [Compound 52]
35	CCN1C(=O)c2c(O)c(=O)c(C(=O)NCc3ccc(C(F)F)cc3)c3n2N(CC3O)C1C (stereo not drawn) [Compound 75]

IC50 [nM]	Structure (SMILES)
1.9	CN1CN2CC(O)c3c(C(=O)NCc4c(F)ccc(Cl)c4F)c(=O)c(O)c(n32)C1=O (stereo not drawn) [Compound 8]
1.5	CCC1N(C)C(=O)c2c(O)c(=O)c(C(=O)NCc3c(F)cc(F)cc3F)c3n2N1CC3O (stereo not drawn) [Compound 36]
1.9	CCN1CN2CC(O)c3c(C(=O)NCc4ccc(F)cc4)c(=O)c(O)c(n32)C1=O (stereo not drawn) [Compound 61]
2.8	CCN1CN2CC(O)c3c(C(=O)NCc4ccc(F)c(F)c4F)c(=O)c(O)c(n32)C1=O (stereo not drawn) [Compound 60]
258	CCN1C(=O)c2c(O)c(=O)c(C(=O)NCc3ccc(C(F)(F)F)cc3)c3n2N(CC3O)C1C (single isomer, unassigned) [Compound 77]
2.1	COCCN1CN2CC(O)c3c(C(=O)NCc4ccc(F)c(Cl)c4F)c(=O)c(O)c(n32)C1=O (stereo not drawn) [Compound 40]
2.1	CCN1C(=O)c2c(O)c(=O)c(C(=O)NCc3c(F)ccc(F)c3F)c3n2N(CC3O)C1C (stereo not drawn) [Compound 84]
1.4	CC1N(C)C(=O)c2c(O)c(=O)c(C(=O)NCc3ccc(F)cc3F)c3n2N1CC3O (single isomer, unassigned) [Compound 14]
1.6	CCC1N(C)C(=O)c2c(O)c(=O)c(C(=O)NCc3ccc(F)cc3F)c3n2N1CC3O (single isomer, unassigned) [Compound 30]
0.76	CCC1N(C)C(=O)c2c(O)c(=O)c(C(=O)NCc3ccc(F)cc3F)c3n2N1CC3O (single isomer, unassigned) [Compound 29]
88	CCN1C(=O)c2c(O)c(=O)c(C(=O)NCc3ccc(C(F)F)cc3)c3n2N(CC3O)C1C (stereo not drawn) [Compound 76]
2.2	CCN1C(=O)c2c(O)c(=O)c(C(=O)NCc3c(F)ccc(F)c3F)c3n2N(CC3O)C1C (single isomer, unassigned) [Compound 82]
1.6	CCN1CN2CC(O)c3c(C(=O)NCc4ccccc4F)c(=O)c(O)c(n32)C1=O (stereo not drawn) [Compound 63]
2.3	CC1N(C)C(=O)c2c(O)c(=O)c(C(=O)NCc3c(F)ccc(F)c3F)c3n2N1CC3O (single isomer, unassigned) [Compound 22]
3	CN1CN2CC(O)c3c(C(=O)NCc4ccc(F)cc4)c(=O)c(O)c(n32)C1=O (stereo not drawn) [Compound 6]

Same assay, conditions: Human immunodeficiency virus 1, IIIB, 0% NHS condition; MT4-GFP cells infected with HIV-1 H9/IIIB; inhibition of reproductive ratio R0, ~48 h and ~72 h post-infection; read-out: WILD TYPE CELL ASSAY Viking IP (0% NHS)

IC50 [nM]	Structure (SMILES)
2.3	CC1N(C)C(=O)c2c(O)c(=O)c(C(=O)NCc3c(F)ccc(F)c3F)c3n2N1CC3O (stereo not drawn) [Compound 23]
3.4	COCCN1CN2CC(O)c3c(C(=O)NCc4c(F)ccc(Cl)c4F)c(=O)c(O)c(n32)C1=O (stereo not drawn) [Compound 43]
2.8	CCN1CN2CC(O)c3c(C(=O)NCc4c(F)ccc(F)c4F)c(=O)c(O)c(n32)C1=O (stereo not drawn) [Compound 47]
2.2	COCCN1CN2CC(O)c3c(C(=O)NCc4ccc(F)c(Cl)c4F)c(=O)c(O)c(n32)C1=O (stereo not drawn) [Compound 39]
1.5	CN1C(=O)c2c(O)c(=O)c(C(=O)NCc3ccc(F)cc3F)c3n2N(CC3O)C12CCOC2 (stereo not drawn) [Compound 113]
1.4	CC1N(C)C(=O)c2c(O)c(=O)c(C(=O)NCc3c(F)ccc(F)c3F)c3n2N1CC3O (single isomer, unassigned) [Compound 21]
2.1	CN1C(=O)c2c(O)c(=O)c(C(=O)NCc3ccc(F)cc3F)c3n2N(CC3O)C12CCOC2 (single isomer, unassigned) [Compound 111]
3.3	CCN1C(=O)c2c(O)c(=O)c(C(=O)NCc3ccc(F)cc3F)c3n2N(CC3O)C1C (stereo not drawn) [Compound 91]
1.6	CN1CN2CC(O)c3c(C(=O)NCc4c(F)ccc(Cl)c4F)c(=O)c(O)c(n32)C1=O (stereo not drawn) [Compound 7]
2.7	CC1N(C)C(=O)c2c(O)c(=O)c(C(=O)NCc3c(F)cc(F)cc3F)c3n2N1CC3O (stereo not drawn) [Compound 19]
2.6	CC1N(C)C(=O)c2c(O)c(=O)c(C(=O)NCc3ccc(F)cc3F)c3n2N1CC3O (stereo not drawn) [Compound 15]
2.9	CCC1N(C)C(=O)c2c(O)c(=O)c(C(=O)NCc3c(F)ccc(Cl)c3F)c3n2N1CC3O (stereo not drawn) [Compound 27]
1.7	CC1N(C)C(=O)c2c(O)c(=O)c(C(=O)NCc3ccc(F)cc3F)c3n2N1CC3O (single isomer, unassigned) [Compound 13]
2	CN1C(=O)c2c(O)c(=O)c(C(=O)NCc3c(F)ccc(Cl)c3F)c3n2N(CC3O)C12CCOC2 (single isomer, unassigned) [Compound 115]
2.5	CCN1CN2CC(O)c3c(C(=O)NCc4ccc(F)c(F)c4F)c(=O)c(O)c(n32)C1=O (stereo not drawn) [Compound 59]
2.1	CCC1N(C)C(=O)c2c(O)c(=O)c(C(=O)NCc3c(F)cc(F)cc3F)c3n2N1CC3O (stereo not drawn) [Compound 35]
1.4	CCC1N(C)C(=O)c2c(O)c(=O)c(C(=O)NCc3c(F)cc(F)cc3F)c3n2N1CC3O (single isomer, unassigned) [Compound 33]
2.8	COCCN1CN2CC(O)c3c(C(=O)NCc4cccc(Cl)c4F)c(=O)c(O)c(n32)C1=O (stereo not drawn) [Compound 41]
4.9	CCC1N(C)C(=O)c2c(O)c(=O)c(C(=O)NCc3ccc(F)cc3F)c3n2N1CC3O (stereo not drawn) [Compound 31]
1.9	CCN1C(=O)c2c(O)c(=O)c(C(=O)NCc3ccc(F)cc3F)c3n2N(CC3O)C1C (single isomer, unassigned) [Compound 89]
80	CCN1C(=O)c2c(O)c(=O)c(C(=O)NCc3ccc(C(F)F)cc3)c3n2N(CC3O)C1C (single isomer, unassigned) [Compound 73]
1.9	CCN1C(=O)c2c(O)c(=O)c(C(=O)NCc3c(F)ccc(Cl)c3F)c3n2N(CC3O)C1C (single isomer, unassigned) [Compound 69]
3.7	CCN1C(=O)c2c(O)c(=O)c(C(=O)NCc3c(F)ccc(Cl)c3F)c3n2N(CC3O)C1C (stereo not drawn) [Compound 71]
2.5	COCCN1CN2CC(O)c3c(C(=O)NCc4c(F)cc(F)cc4F)c(=O)c(O)c(n32)C1=O (stereo not drawn) [Compound 45]
1.8	CN1C(=O)c2c(O)c(=O)c(C(=O)NCc3c(F)ccc(Cl)c3F)c3n2N(CC3O)C12CCOC2 (stereo not drawn) [Compound 117]
2.5	CCN1C(=O)c2c(O)c(=O)c(C(=O)NCc3c(F)ccc(F)c3F)c3n2N(CC3O)C1C (stereo not drawn) [Compound 83]
